# Target: T1, Mtb dihydrofolate reductase (DHFR) (Mycobacterium tuberculosis, UniProt P9WNX1)
# T1 construct: gene folA; recombinant, 6-histidine tag at the amino terminus
# T1 sequence (P9WNX1 1-161): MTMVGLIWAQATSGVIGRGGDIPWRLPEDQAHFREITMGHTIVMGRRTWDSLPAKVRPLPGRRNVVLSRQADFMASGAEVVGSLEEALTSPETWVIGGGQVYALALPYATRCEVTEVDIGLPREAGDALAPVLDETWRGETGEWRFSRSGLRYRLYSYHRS
# Assay type: biochemical
smiles,measurement,value
Nc1nc(N)c2cc(C(F)(F)F)ccc2n1 [NC00094221],IC50,22.4 nM
